Values joined by “and” are separate entries in the source; they are usually repeats but may differ in a detail not shown here. Equal entries are not always repeated.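 Growth conditions: 96-well plates. Treatment: test compound, 48 hours, 5 concentrations. Analysis: linear interpolation between bracketing concentrations; unreached endpoints set to highest concentration. At the GI50, growth is halved. TGI marks complete inhibition of growth.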
How the values were obtained:
Assay in all cases: NCI anticancer screen, dose series, 48 h
[1] = test system: HCC-2998 colon
[2] = test system: OVCAR-3 ovarian
[3] = test system: SK-MEL-5 melanoma
[4] = test system: HOP-62 NSCLC
[5] = test system: BT-549 breast
[6] = test system: DU-145 prostate
[7] = test system: NCI-H522 lung
[8] = test system: UO-31 renal
[9] = test system: NCI-H23 lung
[10] = test system: HCT-15 colon

Structure (SMILES) | GI50 [1] | TGI [1] | GI50 [2] | TGI [2] | GI50 [3] | TGI [3] | GI50 [4] | TGI [4] | GI50 [5] | TGI [5] | GI50 [6] | TGI [6] | GI50 [7] | TGI [7] | GI50 [8] | TGI [8] | GI50 [9] [µM] | TGI [9] [µM] | TGI [10] | GI50 [10]
Cc1cc(S(=O)(=O)NC#N)c(S/C(=N\Nc2ccc([N+](=O)[O-])cc2)c2ccccc2)cc1Cl | 17.2 µM | 30.9 µM | 14.2 µM | 30.5 µM | 19.3 µM | 35.7 µM | 17.2 µM | 32.3 µM | 15.7 µM | 36.7 µM | 11.7 µM | 24 µM | 14.6 µM | 32.6 µM | 15.5 µM | 36.7 µM | 15.4 | 28.8 |  | 
Cn1c(=O)c2[nH]c(COCc3nc4c([nH]3)c(=O)n(C)c(=O)n4C)nc2n(C)c1=O |  |  |  | > 100 µM |  | > 100 µM |  | > 100 µM |  | > 100 µM |  | > 100 µM |  | > 100 µM |  | > 100 µM |  | > 100 | > 100 µM | 
O=C1NC2(O)c3ccccc3C(=O)C2(O)N1c1ccccc1 (stereo not drawn) |  | > 100 µM |  | > 100 µM |  |  |  |  |  |  |  |  |  | > 100 µM |  | > 100 µM |  | > 100 | > 100 µM | 
COc1cc2c(cc1OC)[C@@H](C(O)c1ccccc1)NCC2 (stereo partly drawn) |  | > 100 µM |  | > 100 µM |  | > 100 µM |  | > 100 µM |  |  |  |  |  | > 100 µM |  | > 100 µM |  | > 100 | > 100 µM | 
O[C@]12CCCC[C@H]1CCC2 |  | > 100 µM |  | > 100 µM |  | > 100 µM |  | > 100 µM |  |  |  |  |  | > 100 µM |  | > 100 µM |  | > 100 | > 100 µM | 
CCN(CC)CCCC(C)Nc1cnc(C(=O)Nc2cc(F)cc3cccnc23)cn1 (stereo not drawn) | 5.01 µM and 1.53 µM | 18.4 µM and 2.97 µM | 2.14 µM and 0.349 µM | 6.79 µM and 1.23 µM | 1.78 µM and 1.58 µM | 3.37 µM and 2.95 µM | 10.8 µM and 1.89 µM | 25.3 µM and 3.62 µM | 11.1 µM and 1.59 µM | 24 µM and 3 µM | 10.5 µM and 1.48 µM | 23.1 µM and 2.84 µM | 5.51 µM and 1.26 µM | 19 µM and 2.9 µM | 4.12 µM and 0.933 µM | 17.1 µM and 2.23 µM |  |  | 13.8 µM and 2.69 µM | 3.45 µM and 0.751 µM
O=C(N/N=C/c1cc(Br)cc(Br)c1[O-])c1ccccc1O.O=C(N/N=C/c1cc(Br)cc(Br)c1[O-])c1ccccc1O.[Mn+2] |  | 25.9 µM |  | 1.66 µM |  | 19.2 µM |  | 25.9 µM |  |  |  |  |  |  |  | 24.2 µM |  |  | 19.9 µM | 
CN(C)c1ccc(/C=C2\N=C(c3ccc(N)cc3)OC2=O)cc1 |  | > 100 µM |  | > 100 µM |  | > 100 µM |  | > 100 µM |  |  |  |  |  | > 100 µM |  | > 100 µM |  | > 100 | > 100 µM | 
Cc1nn2c(/C=C3/C(=O)Nc4ccccc43)c(-c3ccc(Cl)cc3)nc2s1 |  |  | 13.4 µM | > 50 µM | 26.3 µM | > 50 µM | 22.4 µM | > 50 µM | 10.7 µM | > 50 µM |  |  | 46 µM | > 50 µM | > 50 µM | > 50 µM |  |  | > 50 µM | 15.3 µM
CCOC(=O)C#Cc1ccc(C#CC(=O)OCC)cc1 |  |  |  | > 20.5 µM |  | > 27.4 µM |  | > 29.3 µM |  | > 21.7 µM |  | > 28 µM |  |  |  |  |  | > 30 | > 20.2 µM | 
CCN(CC)C(=S)N/N=C(\C)c1ccccc1O |  | > 100 µM |  | > 100 µM |  | 51.9 µM |  | > 100 µM |  |  |  |  |  | 33 µM |  | 61.9 µM |  | > 100 | > 100 µM | 
COc1ccc(C(=O)/C=C/c2cc(C(=O)c3cc(OC)c(OC)c(OC)c3)ccc2OC)cc1 |  |  |  |  |  |  | 11.8 µM | 94.5 µM | 2.85 µM | > 100 µM |  |  |  |  |  |  |  |  |  | 
Cn1c2ccc([N+](=O)[O-])cc2c(=O)c2c(O)cc(O)cc21 |  | > 100 µM |  | > 100 µM |  | > 100 µM |  |  |  | > 100 µM |  | > 100 µM |  | 24 µM |  | > 100 µM |  |  | > 100 µM | 
COC1=C(C(=O)OC(C)(C)C)[C@]2(C)C(C(=O)OC(C)(C)C)C(OC)=C(C(=O)OC(C)(C)C)[C@]2(C)C1C(=O)OC(C)(C)C (stereo partly drawn) |  | > 100 µM |  | > 100 µM |  | > 100 µM |  | > 100 µM |  |  |  |  |  | > 100 µM |  | > 100 µM |  | > 100 | > 100 µM | 
Cc1c(C(=O)CC(=O)C(=O)Nc2cccc(C(F)(F)F)c2)[n+](=O)c2ccccc2n1[O-] |  | 16.1 µM |  | 4.92 µM |  | 14 µM |  | 57.6 µM |  |  |  |  |  | 5.5 µM |  | 30.2 µM |  | 40.5 | 10.3 µM | 
Clc1cc(Cl)cc(N2N=C(c3cccc(Nc4ccncc4)c3)CC2c2ccc(Br)cc2)c1 (stereo not drawn) | 1.77 µM | 3.2 µM | 1.72 µM | 3.21 µM | 1.81 µM | 3.26 µM |  |  | 1.94 µM | 3.72 µM | 1.84 µM | 3.41 µM | 1.88 µM | 3.88 µM | 1.39 µM | 2.69 µM | 1.79 | 3.41 | 3.49 µM | 1.8 µM
Cc1cccc(C)c1NC(=O)C(=O)CC(=O)CO |  | > 100 µM |  | > 100 µM |  | > 100 µM |  | > 100 µM |  |  |  |  |  | > 100 µM |  | > 100 µM |  | > 100 | > 100 µM | 
Cc1nc(NC(=S)Nc2ccc(F)cc2)sc1C(=O)NNC(=S)Nc1ccc(F)cc1 | 6.6 µM | 22.5 µM | 2.55 µM | 10.1 µM | 3.5 µM | 15.2 µM | 26.5 µM | 82.5 µM | 14.9 µM | 45.2 µM | 5.53 µM | 22.3 µM | 21.1 µM | > 100 µM | 5.28 µM | 21 µM | 2.78 | 9.73 |  | 
N#CC(C#N)=CN1CCN(C(=O)c2ccccc2)C1=S |  |  | 36.4 µM | > 100 µM | 23.3 µM | 50.1 µM | > 100 µM | > 100 µM | 22.8 µM | 53 µM | 24.4 µM | 85.9 µM | 15.9 µM | 43.7 µM | 20.4 µM | 47.3 µM | 26.1 | 60.1 | > 100 µM | 36.4 µM
COC1CC(OS(=O)(=O)c2ccc(C)cc2)C(OS(=O)(=O)c2ccc(C)cc2)C(COS(=O)(=O)c2ccc(C)cc2)O1 (stereo not drawn) |  | 49.3 µM |  | 5.62 µM |  | 25.7 µM |  | 5.09 µM |  |  |  |  |  | 16 µM |  | 12.1 µM |  | 15.6 | 19 µM | 

Reference: PubChem BioAssay (NCI)
